Results reported in patent US7638554B2, “Flavanoids as chemotherapeutic, chemopreventive, and antiangiogenic agents” (SRI International, priority 2002, dated 2009).
Read-outs that look alike come from different tables or passages of the source.

Experiments:
[1] = tested on: MCF-7 (ER+) breast cancer cell line; experiment: Growth inhibition assay, MTT, MCF-7 breast cancer cells; format: cell-based, human; conditions: MTT assay, eight days, average of at least two experiments, read-out: GROWTH INHIBITION (IC50) MCF-7 (ER+)
Procedure: (§1) Compounds of the invention were tested for their ability to inhibit growth in two breast cancer cell lines, MCF-7 (ER+) and MDA-MB-231 (ER−).
(§2) The growth inhibition assays were conducted using routine methods. Briefly, the cells were seeded in 24-well plates at a density of 2000 cells per well in 200 μL of […] growth medium. To each well was added 10 μL of DMSO containing the dissolved test compound; final DMSO concentration in each well was not more than 0.5%. Each test compound was assayed at concentrations of 0.4, 2, 10, and 50 μM. The plates were incubated for eight days, with the media and test solutions replaced every third day. On Day 8, the viable cells were measured by the MTT assay, as described in Mosmann et al. (1983), “Rapid Colorimetric Assay for Cellular Growth and Survival: Application to Proliferation and Cytotoxicity,” J. Immunol. Method. 65:55-63. The optical density at 575 nm of each test well was measured and compared to that for control wells, and the data used to calculate the percentage of growth inhibition at different concentrations. The IC50 value (the concentration of growth inhibitor that results in 50% growth inhibition of the cells in culture relative to control cells not exposed to any growth inhibitor) was determined by plotting dose-response curves.
(§3) The calculated IC50 values are set forth in Table 1, with the results representing the average of at least two experiments conducted for each compound at each of the four concentrations.

[2] = tested on: MDA-MB-231 (ER−) breast cancer cell line; experiment: Growth inhibition assay, MTT, MDA-MB-231 breast cancer cells; format: cell-based, human; conditions: eight days, average of at least two experiments
Procedure: as §1, §2, §3

[3] = tested on: chick chorioallantoic membrane (CAM) blood vessels; experiment: Chick chorioallantoic membrane (CAM) assay for antiangiogenic activity; format: in vivo; conditions: 11.1 μg/CAM, once daily for 12-14 days
Procedure: The CAM assay, which is widely applied to evaluate in vivo antiangiogenic activity, was utilized with SR 13179.
The methods used were those of Folkman (Auerbach et al. (1974) Dev. Biol. 41:391-394), with some modifications. The test compound was dissolved in saline and methylcellulose, and the embryos dosed once daily for 12-14 days. Blood vessel density of each embryo was measured as the quantitative endpoint. The known antiangiogenic compound medroxyprogesterone acetate (MPA) was used as a positive control.

[4] = tested on: prostate cancer cell line LNCaP; experiment: Growth inhibition, sulforhodamine-based protein determination, LNCaP; format: cell-based; conditions: Homo sapiens, Table 5, read-out: Growth Inhibition (IC50), LNCaP cells
Procedure: The novel compound SR 13179 was assayed for its ability to inhibit growth in several cancer cell lines. The cell lines studied included breast cancer cell line MCF-7 (ER+); prostate cancer cell lines LNCaP, PC3, and DU145; lung cancer cell line A427; ovarian cancer cell lines IGROV1, OVCAR-3, OVCAR-4, OVCAR-5, OVCAR-8, and SK-OV-3; and colon cancer cell lines COLO 205, HCC-2998, HCT-116, HCT-15, HT29, KM12, AND SW-620.
The growth assays for the breast cancer cell lines were conducted according to the method of Example 16. For the other cell lines, each assay was conducted with continuous exposure to the test compound at four log concentrations for six days, using a sulforhodamine-based protein determination to measure growth inhibition.
The procedure of Example 20 was used to evaluate the growth inhibitory effect of various compounds of the invention on LNCaP cells.

[5] = Homo sapiens, MDA-MB-231, 192 h

Compound	IC50 ([1]; Homo sapiens, MCF7, 192 h) [µM]	IC50 [2, 5] [µM]	other results
OC1CC(c2cc(OCc3ccccc3)c(OCc3ccccc3)c(OCc3ccccc3)c2)Oc2cc(OCc3ccccc3)cc(OCc3ccccc3)c21 (centres unmarked) [SR 13183, 5,7-BIS-BENZYLOXY-2-(3,4,5-TRIS-BENZYLOXY-PHENYL)-CHROMAN-4-OL]	> 100	13.6	
O=C(C=Cc1cc(OCc2ccccc2)c(OCc2ccccc2)c(OCc2ccccc2)c1)c1c(O)cc(OCc2ccccc2)cc1OCc1ccccc1 [SR 13178, 1-(2,4-Bis-benzyloxy-6-hydroxyphenyl)-3-(3,4,5-tris-benzyloxy-phenyl)-propenone]			IC50 [1]: 53 µM; IC50 [2]: > 100 µM
CC(=O)O[C@]1(C(C)=O)CC[C@H]2[C@@H]3C[C@H](C)C4=CC(=O)CC[C@]4(C)[C@H]3CC[C@@]21C [MPA, medroxyprogesterone acetate, reference compound]			Blood vessel density score [3]: 4.5 ± 2.3; Percent inhibition relative to control [3]: 58%
COc1cc(C2CC(=O)c3ccc4ccccc4c3O2)cc(OC)c1OC (centres unmarked) [SR 13177, 2-(3,4,5-TRIMETHOXYPHENYL)-2,3-DIHYDRO-BENZO[H]CHROMEN-4-ONE]	4.65		IC50 [4]: 2.52 µM
O=C(/C=C/c1cc(OCc2ccccc2)c(OCc2ccccc2)c(OCc2ccccc2)c1)c1ccc2ccccc2c1O [SR 13185, 1-(1-HYDROXY-NAPHTHALEN-2-YL)-3-(3,4,5-TRIS-BENZYLOXY-PHENYL)-PROPENONE]	5.08	0.562	
COc1ccc(C2CC(=O)c3c(OC)cc(OC)cc3O2)cc1 (centres unmarked) [SR 13188, 5,7-DIMETHOXY-2-(4-METHOXY-PHENYL)-CHROMAN-4-ONE]	> 50	> 50	IC50 [4]: 3.34 µM
O=C1CC(c2cc(OCc3ccccc3)c(OCc3ccccc3)c(OCc3ccccc3)c2)Oc2c1ccc1ccccc21 (centres unmarked) [SR 13186, 2-(3,4,5-TRIS-BENZYLOXY-PHENYL)-2,3-DIHYDRO-BENZO[H]CHROMEN-4-ONE]	7.32	9.84	
COc1cc([C@@H]2CC(O)c3cc4c(cc3O2)CCCC4)cc(OC)c1OC (some centres unmarked) [SR 13817, 5-(4-hydroxy-3,4,6,7,8,9-hexahydro-2H-benzo[g]chromen-2-yl)benzene-1,2,3-trimethoxy]			IC50 [1]: 0.56 µM; IC50 [2]: 1.51 µM
3-(3,4,5-Trimethoxyphenyl)-2,3-dihydro-benzo[F]chromen-1-one [SR 13182]			IC50 [1]: > 50 µM; IC50 [2]: > 50 µM
COc1cc(/C=C/C(=O)c2ccc3ccccc3c2O)cc(OC)c1OC [SR 13176, 1-(1-Hydroxy-naphthalen-2-yl)-3-(3,4,5-trimethoxyphenyl)-propenone]	> 50	39	
COc1cc(C2CC(O)c3c(ccc4ccccc34)O2)cc(OC)c1OC (centres unmarked) [SR 13187, 3-(3,4,5-TRIMETHOXYPHENYL)-2,3-DIHYDRO-1H-BENZO[F]CHROMEN-1-OL]	6.29		IC50 [4]: 17.7 µM
O=C1CC(c2cc(OCc3ccccc3)c(OCc3ccccc3)c(OCc3ccccc3)c2)Oc2cc(OCc3ccccc3)cc(OCc3ccccc3)c21 (centres unmarked) [SR 13180, 5,7-BIS-BENZYLOXY-2-(3,4,5-TRIS-BENZYLOXY-PHENYL)-CHROMAN-4-ONE]	> 50	> 50	
OC1CC(c2cc(OCc3ccccc3)c(OCc3ccccc3)c(OCc3ccccc3)c2)Oc2c1ccc1ccccc21 (centres unmarked) [SR 13191, 2-(3,4,5-TRIS-BENZYLOXY-PHENYL)-3,4-DIHYDRO-2H-BENZO[H]CHROMEN-4-OL]	19.9	> 50	IC50 [4]: 6.58 µM
COc1cc(C2CC(=O)c3c(ccc4ccccc34)O2)cc(OC)c1OC (centres unmarked) [SR 13181, 3′,4′,5′-TRIMETHOXY-B-NAPHTHAFLAVAN-4-ONE]			IC50 [1]: > 100 µM; IC50 [2]: > 100 µM
COc1ccc(C2CC(O)c3c(OC)cc(OC)cc3O2)cc1 (centres unmarked) [SR 13189, 5,7-DIMETHOXY-2-(4-METHOXY-PHENYL)-CHROMAN-4-OL]	> 50	> 50	
